US20240358672A1, “APPLICATION OF GENISTEIN AND ITS PHOSPHATE ESTER DERIVATIVE AND PHARMACEUTICAL COMPOSITION COMPRISING THE SAME” (National Taiwan University, priority 2023, published 2024)

Assays:
C57BL/6J mice = assay type: in vivo; conditions: Δ^9-THC 1 mg/kg plus genistein 50 mg/kg or rimonabant 3 mg/kg
Method: FIG. 7A: Isometric tension recordings of isolated mice thoracic aortas were performed using a wire myograph. Vascular concentration-dependent relaxation was induced by acetylcholine (ACh) in pre-constricted mouse thoracic arteries. […] FIG. 7C: Luminex analysis of inflammatory cytokines in plasma of C57BL/6J mice treated with vehicle control, Δ^9-THC, or Δ^9-THC plus genistein. […] FIG. 7E: Effect of Δ^9-THC and genistein on NF-κB phosphorylation in mouse thoracic artery. Total cell lysates were prepared, and the expressions of phosphor-NF-κB were analyzed by ELISA (upper left). Superoxide dismutase (SOD) activity of serum from mouse (bottom left). The effect of Δ^9-THC and genistein on NF-κB phosphorylation in mouse thoracic artery tissues (n=5). Total cell lysates were prepared, and the expressions of NF-κB, phosphorylated NF-κB, and β-actin were analyzed by western blot analysis (right panel). FIG. 7F: The levels reduced glutathione (GSH), Oxidized glutathione (GSSG), Total glutathione (T-GSH) and GSH/GSSG in the serum samples of mice were detected. Plasma isolated from C57BL/6J mice (n=5) treated with vehicle control, Δ^9-THC, genistein, or their combination every day for 30 days was analyzed by the glutathione colorimetric assay kit (BioVision, K261).
Genistein also rescued the oxidative stress protective-related gene expression (FIG. 7D). In addition, NF-κB phosphorylation and SOD expression in mouse serum were also attenuated with genistein (FIG. 7E). Δ^9-THC administration decreased circulating levels of the antioxidant glutathione, which was ameliorated with genistein cotreatment (FIG. 7F).

CB1 receptor = CB1 receptor (Homo sapiens, UniProt P21554); test: GTPase-Glo assay (in vitro GTPase assay); assay type: biochemical; conditions: GTPase-Glo assay
CB1 receptor, sequence (P21554 whole entry): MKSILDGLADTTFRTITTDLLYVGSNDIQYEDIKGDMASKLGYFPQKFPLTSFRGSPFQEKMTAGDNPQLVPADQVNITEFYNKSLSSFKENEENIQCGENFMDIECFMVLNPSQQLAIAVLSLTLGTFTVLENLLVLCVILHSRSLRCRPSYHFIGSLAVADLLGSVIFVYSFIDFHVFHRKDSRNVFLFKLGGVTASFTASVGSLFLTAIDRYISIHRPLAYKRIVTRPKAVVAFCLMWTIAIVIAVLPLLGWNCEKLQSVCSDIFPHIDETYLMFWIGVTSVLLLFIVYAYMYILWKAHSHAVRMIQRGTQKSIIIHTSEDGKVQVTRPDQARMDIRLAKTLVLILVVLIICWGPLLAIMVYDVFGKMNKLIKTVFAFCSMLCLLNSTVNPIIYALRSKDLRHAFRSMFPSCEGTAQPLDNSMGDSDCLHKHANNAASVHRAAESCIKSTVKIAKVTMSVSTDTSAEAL

Row | GTP turnover compared with Apo (CB1 receptor) | SMILES | Δ^9-THC-induced mRNA expressions of inflammation-related genes in mouse thoracic artery tissues (C57BL/6J mice)
1 | – | Cc1c(C(=O)NN2CCCCC2)nn(-c2ccc(Cl)cc2Cl)c1-c1ccc(Cl)cc1 [rimonabant] | ameliorated
2 | decrease GTP turnover | C[C@H](NC(=O)C(C)(C)Oc1ccc(C(F)(F)F)cn1)[C@@H](Cc1ccc(Cl)cc1)c1cccc(C#N)c1 [taranabant] | –
